A word on the IC50: it is the midpoint of a concentration-inhibition curve. The term bioavailability denotes dose-corrected exposure relative to a reference, in per cent.

Where a name gives a salt, the structure may show the parent alone. Read-outs that look alike come from different tables or passages of the source.

For one series, the system named is Jurkat cells. Put plainly: Measurement of Inhibitory Effect on Leukocyte Functions (adhesion of Jurkat cells to ligand-expressing cells or ligand-immobilized plate). It counts as cell-based. The settings on record: Homo sapiens, 0.5 h, read-out: IC50 (adhesion of Jurkat cells). As for the experimental part: Jurkat cells which are a cell line originated from human acute T cell lymphoma were allowed to react with BCECF-AM at 37° C. for 20 minutes to fluorescently label the cells. The fluorescently labelled Jurkat cells were allowed to react with ligand-expressing cells or with a ligand-immobilized plate at 37° C. for 30 minutes. After removing non-adherent cells by washing, 1% NP40 was added to lyse the adherent cells, and fluorescence intensity was measured with Cytoflow 2300 (Millipore). From the obtained fluorescence intensity, the number of adherent cells was calculated. Each test compound was reacted with the Jurkat cells before the beginning of the adhesion reaction. In Table 18, the IC50 of each compound is shown.

Series [1] can be described thus: Pharmacokinetic Evaluation in Rats. Type of series: in vivo. The settings on record: rat, male SD rats, administered orally or intravenously, plasma up to 8 hours, LC/MS/MS; for bioavailability: oral, read-out: BA(%) (bioavailability); for clearance: read-out: CLtot (total clearance) (converted). As for the experimental part: Each compound was dissolved at a concentration of 0.5 mg/ml in PBS or in PBS containing 10% PEG. The compound was administered orally or intravenously to male SD rats (7 to 9 weeks old). Blood was collected from the tail vein at time points up to 8 hours after the administration, and blood plasma was collected by centrifugation from each obtained blood. The blood plasma was pretreated by using the solid-phase extraction method, and the concentration of the compound was analyzed with LC/MS/MS (ESI negative mode).
As the Comparative Compound, 2-[4-((3,5-dichlorobenzensulfonylamino)methyl)benzoylamino]-5-(4-(methyl-pyrimidin-2-ylamino)phenyl)pento-4-ene acid (XXI) described in WO 99/26923 was used.
[“BA” in Table 17 means bioavailability, and “CLtot” means total clearance.]

Where [2] appears, read: fluorescently labelled Jurkat cells, ligand-expressing cells or ligand-immobilized plate, 37° C. 30 minutes.

In the case of `O=C(NC(C/C=C/c1ccc(N(CC2CC2)c2ncccn2)cc1)C(=O)O)c1c(Cl)cccc1Cl` (stereo not drawn) [Example 53, (E)-5-[4-(Cyclopropylmethyl-pyrimidin-2-ylamino)phenyl]-2-(2,6-dichlorobenzamido)pent-4-enoic acid sodium salt], the IC50 in the series with Jurkat cells (Jurkat) was found to be 120 nM.

For the molecule `COC1(c2ccc(/C=C/CC(NC(=O)c3c(Cl)cccc3Cl)C(=O)O)cc2)CCCOCC1` (stereo not drawn) [Example 10, (E)-2-(2,6-Dichlorobenzamido)-5-[4-(4-methoxyoxepan-4-yl)phenyl]pent-4-enoic acid sodium salt], in the series on Jurkat cells (setting [2]), the IC50 is 220 nM.

`COCC1(c2ccc(/C=C/CC(NC(=O)c3c(Cl)cccc3Cl)C(=O)O)cc2)CCOCC1` (stereo not drawn) [Example 8, (E)-2-(2,6-Dichlorobenzamido)-5-[4-(tetrahydro-4-(methoxymethyl)-2H-pyran-4-yl)phenyl]pent-4-enoic acid sodium salt]: in the series on Jurkat cells (setting [2]), the half-maximal inhibitory concentration (IC50) worked out at 69 nM.

Turning to `O=C(NC(C/C=C/c1ccc(N(Cc2ccncc2)c2ncccn2)cc1)C(=O)O)c1c(Cl)cccc1Cl` (stereo not drawn) [Example 59, (E)-2-(2,6-Dichlorobenzamido)-5-[4-(pyridin-4-ylmethyl-pyrimidin-2-ylamino)phenyl]pent-4-enoic acid], the IC50 in the series with Jurkat cells (setting [2]) turned out to be 43 nM.

For the molecule `N#CCCN(c1ccc(/C=C/CC(NC(=O)c2c(Cl)cccc2Cl)C(=O)O)cc1)c1ncccn1` (stereo not drawn) [Example 31, (E)-5-[4-((2-Cyano-ethyl)-pyrimidin-2-yl-amino)-phenyl]-2-(2,6-dichlorobenzamido)-pent-4-enoic acid sodium salt], the concentration for half-maximal inhibition (IC50) with Jurkat cells (setting [2]) came out at 41 nM.

In the case of `O=C(NC(C/C=C/c1ccc(N(Cc2cccnc2)c2ncccn2)cc1)C(=O)O)c1c(Cl)cccc1Cl` (stereo not drawn) [Example 39, (E)-2-(2,6-Dichlorobenzamido)-5-[4-(pyridin-3-ylmethyl-pyrimidin-2-ylamino)phenyl]pent-4-enoic acid sodium salt], the IC50 in the series on Jurkat cells (setting [2]) worked out at 71 nM.

With `O=C(NC(C/C=C/c1ccc(N(Cc2ccccn2)c2ncccn2)cc1)C(=O)O)c1c(Cl)cccc1Cl` (stereo not drawn) [Example 61], the IC50 with Jurkat cells (setting [2]) came to 33 nM.

`COC(=O)C(C/C=C/c1ccc(N(CCC#N)c2ncccn2)cc1)NC(=O)c1c(F)cccc1F` (stereo not drawn) [Example 70, (E)-5-[4-((2-Cyano-ethyl)-pyrimidin-2-yl-amino)-phenyl]-2-(2,6-difluorobenzamido)-pent-4-enoic acid methyl ester]: in series [1], the bioavailability came to 63.4% and the clearance was 8.87 mL/min/kg.

As to `CCN(c1ccc(/C=C/CC(NC(=O)c2c(Cl)cccc2Cl)C(=O)O)cc1)c1ncccn1` (stereo not drawn) [Example 24, (E)-2-(2,6-Dichlorobenzamido)-5-[4-(ethyl-pyrimidin-2-ylamino)phenyl]pent-4-enoic acid], the IC50 with Jurkat cells (setting [2]) was 220 nM. Besides, in series [1], the bioavailability came to 42.3% and the clearance is 12.6 mL/min/kg.

As to `O=C(NC(C/C=C/c1ccc(N(Cc2cscn2)c2ncccn2)cc1)C(=O)O)c1c(Cl)cccc1Cl` (stereo not drawn) [Example 41, (E)-2-(2,6-Dichlorobenzamido)-5-[4-(pyrimidin-2-yl-thiazol-4-ylmethyl-amino)phenyl]pent-4-enoic acid sodium salt], the half-maximal inhibitory concentration (IC50) in the series on Jurkat cells (setting [2]) was 950 nM.

For the molecule `COc1ccc(CN(c2ccc(/C=C/CC(NC(=O)c3c(Cl)cccc3Cl)C(=O)O)cc2)c2ncccn2)cc1` (stereo not drawn) [Example 35, (E)-2-(2,6-Dichlorobenzamido)-5-[4-((4-methoxy-benzyl)-pyrimidin-2-ylamino)phenyl]pent-4-enoic acid sodium salt], the IC50 with Jurkat cells (setting [2]) was found to be 88 nM.

With `CCCN(c1ccc(/C=C/CC(NC(=O)c2c(Cl)cccc2Cl)C(=O)O)cc1)c1ncccn1` (stereo not drawn) [Example 57, (E)-2-(2,6-Dichlorobenzamido)-5-[4-(propyl-pyrimidin-2-ylamino)phenyl]pent-4-enoic acid], the IC50 with Jurkat cells (setting [2]) worked out at 110 nM.

As for `O=C(NC(C/C=C/c1ccc(N(c2ccccc2)c2ncccn2)cc1)C(=O)O)c1c(Cl)cccc1Cl` (stereo not drawn) [Example 47, (E)-2-(2,6-Dichlorobenzamido)-5-[4-(phenyl-pyrimidin-2-ylamino)phenyl]pent-4-enoic acid sodium salt], the concentration for half-maximal inhibition (IC50) in the series on Jurkat cells (setting [2]) came to 930 nM.

On to `CCCCN(c1ccc(/C=C/CC(NC(=O)c2c(Cl)cccc2Cl)C(=O)O)cc1)c1ncccn1` (stereo not drawn) [Example 37, (E)-5-(4-Butyl-pyrimidin-2-yl-amino)-phenyl]-2-(2,6-dichlorobenzamido)-pent-4-enoic acid sodium salt], for which the IC50 in the series on Jurkat cells (Jurkat) was 160 nM.

With `Cc1cccc(C)c1C(=O)NC(C/C=C/c1ccc(N(C)c2ncccn2)cc1)C(=O)O` (stereo not drawn) [Example 69, (E)-2-(2,6-Dimethylbenzamido)-5-[4-(methyl-pyrimidin-2-ylamino)phenyl]pent-4-enoic acid], in the series on Jurkat cells (setting [2]), the 50% inhibitory concentration (IC50) is 530 nM.

As for `O=C(NC(C/C=C/c1ccc(Oc2ncccn2)cc1)C(=O)O)c1c(Cl)cccc1Cl` (stereo not drawn) [Example 12, (E)-2-(2,6-Dichlorobenzamido)-5-[4-(pyrimidin-2-yloxy)phenyl]pent-4-enoic acid], the IC50 in the series with Jurkat cells (setting [2]) was 220 nM.

On to `O=C(NC(C/C=C/c1ccc(N(Cc2ccc(O)cc2)c2ncccn2)cc1)C(=O)O)c1c(Cl)cccc1Cl` (stereo not drawn) [Example 29, (E)-2-(2,6-Dichlorobenzamido)-5-[4-((4-hydroxy-benzyl)-pyrimidin-2-ylamino)phenyl]pent-4-enoic acid], for which, in the series on Jurkat cells (setting [2]), the IC50 amounted to 41 nM.

`COCCN(c1ccc(/C=C/CC(NC(=O)c2c(Cl)cccc2Cl)C(=O)O)cc1)c1ncccn1` (stereo not drawn) [Example 26, (E)-2-(2,6-Dichlorobenzamido)-5-[4-((2-methoxyethyl)-pyrimidin-2-ylamino)phenyl]pent-4-enoic acid sodium salt]: the half-inhibitory concentration (IC50) with Jurkat cells (setting [2]) was 36 nM.

As for `CCOC1(c2ccc(/C=C/CC(NC(=O)c3c(Cl)cccc3Cl)C(=O)OC)cc2)CCOCC1` (stereo not drawn) [Example 5, (E)-2-(2,6-Dichlorobenzamido)-5-[4-(4-ethoxytetrahydropyran-4-yl)-phenyl]pent-4-enoic acid methyl ester], the IC50 in the series with Jurkat cells (setting [2]) was determined as 100 nM.

In the case of `CN(c1ccc(/C=C/CC(NC(=O)c2ccc(CNS(=O)(=O)c3cc(Cl)cc(Cl)c3)cc2)C(=O)O)cc1)c1ncccn1` (stereo not drawn) [Comparative Compound, 2-[4-((3,5-dichlorobenzensulfonylamino)methyl)benzoylamino]-5-(4-(methyl-pyrimidin-2-ylamino)phenyl)pento-4-ene acid, reference compound], in series [1], the bioavailability was determined as 1.7% and the clearance is 21.4 mL/min/kg.

On to `COc1cc(OC)nc(N(C)c2ccc(/C=C/CC(NC(=O)c3c(Cl)cccc3Cl)C(=O)O)cc2)n1` (stereo not drawn) [Example 45, (E)-2-(2,6-Dichlorobenzamido)-5-[4-((4,6-dimethoxy-pyrimidin-2-yl)-methyl-amino)phenyl]pent-4-enoic acid], for which, in the series with Jurkat cells (setting [2]), the IC50 amounted to 890 nM.

With `O=C(NC(C/C=C/c1ccc(N(c2ncccn2)C2CCOCC2)cc1)C(=O)O)c1c(Cl)cccc1Cl` (stereo not drawn) [Example 49, (E)-2-(2,6-Dichlorobenzamido)-5-[4-(pyrimidin-2-yl-(tetrahydro-pyran-4-yl)-amino)phenyl]pent-4-enoic acid sodium salt], the IC50 with Jurkat cells (setting [2]) was found to be 79 nM.

`CC(C)CN(c1ccc(/C=C/CC(NC(=O)c2c(Cl)cccc2Cl)C(=O)O)cc1)c1ncccn1` (stereo not drawn) [Example 55, (E)-2-(2,6-Dichlorobenzamido)-5-[4-(isobutyl-pyrimidin-2-ylamino)phenyl]pent-4-enoic acid sodium salt]: the IC50 with Jurkat cells (Jurkat) is 420 nM.

For the origin of these results see patent publication US7566724B2, “Glycine derivative and use thereof” (Toray Industries, Inc., priority 2004, dated 2009).
